Experimental data: BigSolDB 2.1

## O=C(/C=C/c1ccc(O)c(O)c1)O[C@H](Cc1ccc(O)c(O)c1)C(=O)O
In ethyl acetate, 293.15 K
  solubility (mole fraction): 0.0345
In ethyl acetate, 298.15 K
  solubility (mole fraction): 0.0466
In ethyl acetate, 303.15 K
  solubility (mole fraction): 0.0506
In ethyl acetate, 308.15 K
  solubility (mole fraction): 0.0588
In ethyl acetate, 313.15 K
  solubility (mole fraction): 0.0722
In methyl acetate, 293.15 K
  solubility (mole fraction): 0.0363
In methyl acetate, 298.15 K
  solubility (mole fraction): 0.049
In methyl acetate, 303.15 K
  solubility (mole fraction): 0.0533
In methyl acetate, 308.15 K
  solubility (mole fraction): 0.0619
In methyl acetate, 313.15 K
  solubility (mole fraction): 0.0764
